Laboratory results taken from patent publication US10882825B2, “Non-solvated crystal, preparation method and application thereof” (SHENZHEN CHIPSCREEN BIOSCIENCES CO., LTD., priority 2016, dated 2021).

Test: Stability test of the crystal form (high temperature, high humidity, strong light irradiation; X-ray powder diffraction and HPLC content)
Type: physicochemical
Conditions: high temperature (60° C.), high humidity (90%), strong light irradiation (4500 Lx); day 0 vs day 10
Protocol: Test conditions of X-ray powder diffraction: instrument: D/MAX-1200 (Rigaku, Japan); radiation source: Cu-Kα (40 kV, 40 mA).
Test conditions of stability: high temperature (60° C.), high humidity (90%) and strong light irradiation (4500 Lx) tests are performed according to the Chinese Pharmacopoeia 2010 edition, Part II, Appendix XIX C.
Test conditions of HPLC: instrument: Dionex UltiMate3000; column: Shim-pack VP-ODS 5 μm 250 L×4.6; detector: VWD-3100, detection wavelength: 256 nm; mobile phase: methanol-water-glacial acetic acid (30:70:0.4); flow rate: 1.0 mL/min, column temperature: 30° C.
High temperature (60° C.), high humidity (90%) and strong light irradiation (4500 Lx) tests of the non-solvated crystal A of example 1, non-solvated crystal B of example 2, and non-solvated crystal C of example 3 were performed according to the Chinese Pharmacopoeia 2010 edition, Part II, Appendix XIX C. Samples on day 0 and day 10 respectively were taken to determine the X-ray powder diffraction pattern and content (HPLC method).

- content (HPLC method) after stability test: does not change significantly
SMILES: COc1ccc2c(Oc3ccc4c(C(=O)Nc5ccccc5N)cccc4c3)ccnc2c1 [non-solvated crystal A, N-(2-aminophenyl)-6-(7-methoxyquinoline-4-oxo)-1-naphthaleneformamide]
- crystal form (X-ray powder diffraction pattern) after stability test: remain unchanged in their original crystal forms
